Measurements reported in PMC12491715 (Acta Pharmaceutica Sinica. B, 2025).

Assays:
[1] = system: caspase-3 activity in SH-SY5Y cells; assay: Caspase-3 activity in lysates of Aβ1–42-treated cells; type: cell-based, human; details: 5 μmol/L compound, 5 μmol/L fibrillar Aβ1–42, 24 h
Method: (§1) Cell culture and treatments The human neuroblastoma SH-SY5Y cell line was purchased from American Type Culture Collection (Manassas, VA, USA). Cells were cultured in Advanced Dulbecco’s modified Eagle’s medium (Gibco, Thermo Fisher Scientific, Waltham, MA, USA) supplemented with 10% fetal bovine serum (FBS, Gibco), 2 mmol/L L-glutamine, 50 U/mL penicillin and 50 μg/mL streptomycin (Sigma, St. Louis, MO, USA) in a humidified atmosphere of 95% air and 5% CO2 at 37 °C, and grown to 80% confluence. Prior to cell treatment, complete medium was replaced with serum-reduced medium (i.e., with 2% FBS). Compounds were prepared as a stock solution of 50 mmol/L in DMSO.
Caspase-3 activity and Western blot analysis The activity of caspases-3 was determined in total cell lysates of the SH-SY5Y cells treated as described. […] Following cell treatment for 24 h, cell lysates were prepared, and the caspase-3 activity was assessed using the fluorescent peptide substrate N-acetyl-L-α-aspartyl-L-α-glutamyl-L-valyl-N-[2-oxo-4-(trifluoromethyl)-2H-1-benzopyran-7-yl]-L-α-asparagine (Ac-DEVD-AFC; Bachem). […] Immediately after the addition of the substrate, fluorescence was monitored continuously for 30 min at an excitation wavelength of 405 nm and an emission wavelength of 535 nm using a Tecan Safire[2] fluorescence microplate reader. […]

SH-SY5Y cells = assay: Neuroprotection assay against Aβ1–42, 7-AAD flow cytometry; type: cell-based, human; details: 5 μmol/L compound, 5 μmol/L fibrillar Aβ1–42, 48 h
Method: as §1
Neuroprotection assay The neuroprotective effect of compounds on cytotoxic effect of Aβ1–42 was determined with the fluorescent intercalator 7-aminoactinomycin D (7-AAD) assessed by flow cytometry. Prior to cell treatment, the peptide Aβ1–42 (Merck Millipore, Darmstadt, Germany) was dissolved in DMSO at a concentration of 1 mmol/L and was incubated at 100 μmol/L in 1 mol/L HCl at 37 °C for 24 h to induce Aβ aggregation. […] Cells were then analysed for cytotoxicity by flow cytometry on Attune NxT flow cytometer (Thermo Fisher Scientific). The percentage of 7AAD positive (7AADpos) cells was evaluated using FlowJo software (FlowJo, LLC., Ashland, OR, USA).

GSK3β = assay: Western blot of APP/PS1 mice brain homogenates, GSK3β; type: in vivo, C57BL/6J-TgN(APP/PS1)ZLFILAS mice; details: 15-day treatment, 1 or 5 mg/kg ip
hBChE = hBChE (Homo sapiens, UniProt P06276); assay: hBChE binding kinetics: carbamoylation and decarbamoylation, initial velocity measurements; type: biochemical
Method: The progress curves for the time courses of product formation for the hydrolysis of butyrylthiocholine iodide were measured on an Agilent Cary 3500 UV–VIS spectrophotometer with Compact Peltier (thermostated at 25 °C) at 412 nm using a 0.6 mL cuvette (optical path–0.5 cm). 30 mmol/L Tris buffer pH 7.0 with 1 mg/mL BSA and 0.02% NaN3 was used and all dilutions were done in glass vessels (note: dilute hBChE solutions rapidly lose activity, presumably due to adsorption to plastic, preventing meaningful decarbamoylation assays. In our hands, under the above conditions only, the diluted and stock solutions of hBChE were stable for at least a month at room temperature.). Total volume in the cuvette was always 500 μL, and enzyme solutions that gave upon dilution v0 = (dA/dt) ≈ 0.5 (for carbamoylation) and ≈ 1 for (for decarbamoylation) were used. For carbamoylation experiments, 0.5–1 μL of enzyme stock, 5 μL of compound solution, and 484 μL of buffer were preincubated for the specified time, then 10 μL of the mixture of 25 mmol/L Ellman’s reagent (DTNB) and 20 mmol/L butyrylthiocholine (large excess to prevent substrate depletion) were added, quickly mixed, and measurement started. […] The data analysis followed the literature[63]^,[98].

Sequence of hBChE (P06276 29-602): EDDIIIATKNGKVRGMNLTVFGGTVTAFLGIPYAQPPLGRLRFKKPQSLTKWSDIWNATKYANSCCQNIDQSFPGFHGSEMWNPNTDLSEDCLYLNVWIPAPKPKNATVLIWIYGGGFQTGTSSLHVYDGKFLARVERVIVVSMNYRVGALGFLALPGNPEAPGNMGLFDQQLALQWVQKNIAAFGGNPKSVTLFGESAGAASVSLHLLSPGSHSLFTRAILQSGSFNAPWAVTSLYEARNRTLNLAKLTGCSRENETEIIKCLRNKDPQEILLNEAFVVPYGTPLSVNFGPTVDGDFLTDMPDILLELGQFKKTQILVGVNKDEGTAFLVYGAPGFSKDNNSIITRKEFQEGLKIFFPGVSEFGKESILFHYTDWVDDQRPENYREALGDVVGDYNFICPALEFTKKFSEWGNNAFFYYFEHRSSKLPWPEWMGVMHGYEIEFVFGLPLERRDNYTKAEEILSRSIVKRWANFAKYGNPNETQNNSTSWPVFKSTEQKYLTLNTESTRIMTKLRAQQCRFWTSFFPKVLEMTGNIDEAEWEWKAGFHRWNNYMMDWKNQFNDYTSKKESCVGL

CCN(CC)C(=O)n1cnc(C2(CC)Cc3ccccc3C2)c1 [Compound 8, N,N-Diethyl-4-(2-ethylindan-2-yl)-1H-imidazole-1-carboxamide]
caspase-3 activity after Aβ1–42 treatment [1]: significant reduction
7-AAD-positive cells after Aβ1–42 treatment (SH-SY5Y cells): significant reduction
phosphorylation of GSK3β in whole brain homogenates (GSK3β): increased phosphorylation of GSK3β
Ki (hBChE): 2.82 ± 0.2 µM
kcarb, carbamoylation (hBChE; 25 °C): 3.7±1.7 min^–1
ΔG25°C‡, carbamoylation (hBChE; 25 °C): 19.1 ± 0.3 kcal/mol
reactivation period of the carbamoylated enzyme (hBChE; Table 2): > 10 days
prolongation of decarbamoylation phase (hBChE; compared to 6): > 15 fold
